In patent publication US20190352276A1, “INHIBITORS OF BRUTON'S TYROSINE KINASE” (Joint Stock Company "Biocad", priority 2016, published 2019) one finds IC50 data, which are given here for 14 molecules.

pIC50: −log10 of the molar value.

For one assay, the target named is T1, EGFR (Homo sapiens, UniProt P00533).
T1 construct: purchased SignalChem E10-11G
Description: In vitro kinase panel: EGFR. The assay is classed as biochemical. Particulars: Table 9 kinase panel. Here is the method: (§1) The measurements were carried out in a 25 μL reaction volume using a 96-well plate (Corning, #3642). The kinase enzyme and inhibitor were pre-incubated for 10 minutes in the reaction buffer containing 25 mM of MOPS (pH 7.2), 12.5 mM of 0-glycerophosphate, 27 mM of MgCl2, 2 mM of MnCl2, 5 mM of EGTA, 2 mM of EDTA, 0.3 mM of DTT, and 1.2 mg/mL of bovine serum albumin. Staurosporine (Abcam Biochemicals, ab146588) was used as a reference inhibitor and 0.1% DMSO in the reaction buffer—as a negative control. The solution of 0.5 mg/mL peptide substrate and 50 &M ATP in the same buffer were added; the solution was incubated for 180 minutes at 37° C. To detect the amount of ATP taken up during the kinase reaction, the equivalent amount of ADP (from the ADP Glo Detection Kit (Promega, #V9101)) was used according to the protocol. The reaction mixture was equilibrated to room temperature. 25 µL of ADP-Glo Reagent were added into each well; the plate was incubated for 40 minutes. 50 μL of Kinase Detection Reagent were added; the plate was incubated for 30 minutes. The luminescence was measured with multimode plate reader (Tecan Infinite M200Pro, Switzerland). IC50 values were calculated using Magellan 7.2 software (Tecan, Switzerland) approximating experimental points by four-parameter logistic model with the optimization by Levenberg-Marquardt.
(§2) For active compounds selected by screening using the target enzyme BTK, the values of IC50 were determined on a kinase panel: EGFR (SignalChem, #E10-11G), ITK (SignalChem, #I13-10G) and TEC (SignalChem, #T03-10G).

The target of a further assay is T2, ITK (Homo sapiens, UniProt Q08881).
T2 construct: purchased SignalChem I13-10G
T2 sequence (Q08881 1-620): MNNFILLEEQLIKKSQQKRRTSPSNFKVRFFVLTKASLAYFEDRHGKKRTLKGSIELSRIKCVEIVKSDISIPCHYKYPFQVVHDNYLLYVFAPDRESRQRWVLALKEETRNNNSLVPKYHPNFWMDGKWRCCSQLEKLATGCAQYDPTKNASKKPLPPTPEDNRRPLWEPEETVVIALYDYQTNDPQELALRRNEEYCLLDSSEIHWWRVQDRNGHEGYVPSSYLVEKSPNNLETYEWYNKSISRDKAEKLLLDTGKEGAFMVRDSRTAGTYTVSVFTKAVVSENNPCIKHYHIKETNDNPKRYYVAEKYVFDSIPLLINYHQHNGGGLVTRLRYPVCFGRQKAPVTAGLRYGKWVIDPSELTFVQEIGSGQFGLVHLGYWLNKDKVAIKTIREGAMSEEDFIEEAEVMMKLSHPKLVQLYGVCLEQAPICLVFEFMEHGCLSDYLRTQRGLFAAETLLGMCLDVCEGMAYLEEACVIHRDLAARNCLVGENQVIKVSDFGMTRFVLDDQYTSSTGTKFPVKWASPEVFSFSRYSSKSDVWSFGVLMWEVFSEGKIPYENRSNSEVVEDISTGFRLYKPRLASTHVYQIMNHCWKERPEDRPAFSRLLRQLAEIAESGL
Description: In vitro kinase panel: ITK. It is filed as biochemical. The conditions noted are these: Table 9 kinase panel. Here is the method:
as §1, §2

The target of another assay is T3, TEC (Homo sapiens, UniProt P42680).
T3 construct: purchased SignalChem T03-10G
T3 sequence (P42680 1-631): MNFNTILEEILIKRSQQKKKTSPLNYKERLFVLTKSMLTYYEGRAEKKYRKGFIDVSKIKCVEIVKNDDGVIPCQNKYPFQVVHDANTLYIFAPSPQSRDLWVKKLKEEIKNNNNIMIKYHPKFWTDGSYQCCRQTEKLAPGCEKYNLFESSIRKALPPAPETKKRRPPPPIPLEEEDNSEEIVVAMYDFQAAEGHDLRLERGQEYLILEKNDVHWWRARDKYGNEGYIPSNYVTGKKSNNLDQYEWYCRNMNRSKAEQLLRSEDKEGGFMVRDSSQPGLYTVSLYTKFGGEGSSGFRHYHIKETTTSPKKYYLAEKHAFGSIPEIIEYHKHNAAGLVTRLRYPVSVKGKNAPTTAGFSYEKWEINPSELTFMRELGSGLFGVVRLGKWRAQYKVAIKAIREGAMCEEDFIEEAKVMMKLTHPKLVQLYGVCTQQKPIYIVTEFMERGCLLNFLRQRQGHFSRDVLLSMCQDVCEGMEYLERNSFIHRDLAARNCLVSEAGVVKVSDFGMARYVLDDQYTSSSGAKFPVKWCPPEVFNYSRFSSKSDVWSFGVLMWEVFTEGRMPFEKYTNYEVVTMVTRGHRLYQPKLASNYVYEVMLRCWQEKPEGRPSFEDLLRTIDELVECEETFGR
The assay can be described thus: In vitro kinase panel: TEC. Particulars: Table 9 kinase panel. The assay is classed as biochemical. Here is the method:
as §1, §2

The subject of assay [1] is DOHH2 (follicular lymphoma). The assay can be described thus: Antiproliferative activity, DOHH2 cells (Alamar Blue). It is filed as cell-based. The conditions noted are these: Homo sapiens, DOHH-2, Table 10, 72 h, average of several tests. The essentials: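 A 72 h growth-inhibition assay using Alamar Blue fluorescence as the viability readout, with IC50 taken from a four-parameter logistic curve.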
On the technique in general: Alamar Blue is a resazurin reagent that responds to reducing activity.

T1 sequence (P00533 672-1210 limits assumed): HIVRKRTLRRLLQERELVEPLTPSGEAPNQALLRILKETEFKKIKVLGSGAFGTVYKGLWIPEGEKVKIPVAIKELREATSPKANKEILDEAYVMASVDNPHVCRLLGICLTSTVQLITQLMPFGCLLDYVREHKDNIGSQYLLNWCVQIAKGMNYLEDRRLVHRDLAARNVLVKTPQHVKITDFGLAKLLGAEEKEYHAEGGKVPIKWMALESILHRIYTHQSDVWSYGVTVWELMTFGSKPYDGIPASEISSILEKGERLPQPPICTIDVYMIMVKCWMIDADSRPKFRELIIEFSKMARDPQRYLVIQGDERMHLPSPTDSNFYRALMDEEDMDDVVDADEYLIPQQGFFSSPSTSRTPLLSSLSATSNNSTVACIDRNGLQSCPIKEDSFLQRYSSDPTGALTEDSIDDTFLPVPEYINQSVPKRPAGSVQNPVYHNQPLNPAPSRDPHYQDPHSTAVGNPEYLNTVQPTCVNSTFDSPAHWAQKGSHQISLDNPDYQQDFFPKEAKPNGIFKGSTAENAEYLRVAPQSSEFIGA

In general, pIC50 refers to the negative decadic logarithm of the IC50, by convention in mol/L. Lower therefore signals a large IC50. `C=CC(=O)N1CCC[C@@H](n2nc(-c3ccc(Oc4ccncc4)cc3)c3cncc(Cl)c32)C1` [BCD-BTK-125, (R)-1-(1-acryloylpiperidin-3-yl)-7-chloro-3-(4-(pyridin-4-yloxy)phenyl)-1H-pyrazolo[4,3-c]pyridine]: the pIC50 at EGFR and on ITK was under 6.00 each time.
For the molecule `C=CC(=O)N1CCC[C@@H](n2nc(-c3ccc(Oc4ccncc4)cc3)c3c(N)ncc(Cl)c32)C1` [BCD-BTK-139, (R)-1-(1-acryloylpiperidin-3-yl)-7-chloro-3-(4-(pyridin-4-yloxy)phenyl)-1H-pyrazolo[4,3-c]pyridin-4-amine], the values for the pIC50 on EGFR and on ITK were 7.31 and 6.70, respectively.
On to `C=CC(=O)N1CCC[C@@H](n2nc(-c3ccc(C(=O)Nc4ccccn4)cc3)c3cncc(Cl)c32)C1` [BCD-BTK-201], for which the pIC50 against EGFR was 6.76; against ITK, under 6.52; on TEC, 7.26; in assay [1] it was 5.10.
Turning to `C=CC(=O)N1CCC[C@@H](n2nc(-c3ccc(Oc4ccncc4C#N)cc3)c3cncc(Cl)c32)C1` [BCD-BTK-202, (R)-4-(4-(1-(1-acryloylpiperidin-3-yl)-7-chloro-1H-pyrazolo[4,3-c]pyridin-3-yl)phenoxy)nicotinonitrile], the pIC50 on EGFR was under 6.30; at ITK, under 6.30; on TEC, under 6.30; in assay [1], 5.05.
`C=CC(=O)N1CCC[C@@H](n2nc(-c3ccc(Oc4cccnc4C(N)=O)cc3)c3cncc(Cl)c32)C1` [BCD-BTK-220, 3-(4-{7-chloro-1-[(3R)-1-(prop-2-enoyl)piperidin-3-yl]-1H-pyrazolo[4,3-c]pyridin-3-yl}phenoxy)pyridine-2-carboxamide]: the pIC50 against EGFR was 6.09; on ITK it was under 6.52; against TEC it was under 7.00; in assay [1] it was 5.02.
As to `C=CC(=O)N1CCC[C@@H](n2nc(-c3ccc(Oc4cccnc4C#N)cc3)c3cncc(F)c32)C1` [BCD-BTK-230, (R)-3-(4-(1-(1-acryloylpiperidin-3-yl)-7-fluoro-1H-pyrazolo[4,3-c]pyridin-3-yl)phenoxy)picolinonitrile], the pIC50 on EGFR was under 6.30; on ITK it was under 6.00; against TEC, under 6.70; in assay [1], 4.83.
Turning to `C=CC(=O)N1CCC[C@@H](n2nc(-c3ccc(C(=O)Nc4ccccn4)cc3)c3c(N)ncc(C#N)c32)C1` [BCD-BTK-234, (R)-4-(1-(1-acryloylpiperidin-3-yl)-4-amino-7-cyano-1H-pyrazolo[4,3-c]pyridin-3-yl)-N-(pyridine-2-yl)benzamide], the pIC50 against EGFR was 8.74; against ITK, 7.59; against TEC, 7.83; in assay [1], 5.05.
Taken in the same sequence, the figures for `C=CC(=O)N1CCC[C@@H](n2nc(-c3ccc(Oc4ccncc4)cc3)c3c(N)ncc(OC)c32)C1` [BCD-BTK-239, (R)-1-(1-acryloylpiperidin-3-yl)-4-amine-7-methoxy-3-(4-(pyridin-4-yloxy)phenyl)-1H-pyrazolo[4,3-c]pyridine] were 7.98, 7.60, 8.22 and 5.09.
Taken in the same sequence, the figures for `C=CC(=O)N1CCC[C@@H](n2nc(-c3ccc(C(=O)Nc4ccccn4)cc3)c3c(N)ncc(OC)c32)C1` [BCD-BTK-240, (R)-4-(1-(1-acryloylpiperidin-3-yl)-4-amino-7-methoxy-1H-pyrazolo[4,3-c]pyridin-3-yl)-N-(pyridin-2-yl)benzamide] were 8.62, 8.11, 8.42 and 5.70.
In the same order, the values of `C=CC(=O)N1CCC[C@@H](n2nc(-c3ccc(C(=O)Nc4ccccn4)cc3)c3c(N)nccc32)C1` [BCD-BTK-242, (R)-4-(1-(1-acryloylpiperidin-3-yl)-4-amino-1H-pyrazolo[4,3-c]pyridin-3-yl)-N-(pyridin-2-yl)benzamide] are 8.88, 7.96, 8.18 and 5.08.
For the molecule `C=CC(=O)N1CCC[C@@H](n2nc(-c3ccc(C(=O)Nc4cc(C(F)(F)F)ccn4)cc3)c3c(N)ncc(Cl)c32)C1` [BCD-BTK-251, (R)-4-(1-(1-acryloylpiperidin-3-yl)-4-amino-7-chloro-1H-pyrazolo[4,3-c]pyridin-3-yl)-N-(4-(trifluoromethyl)pyridin-2-yl)benzamide], the pIC50 against EGFR is 8.05; on ITK it was 8.00; on TEC it was 8.14; in assay [1], 5.47.
On to `C=CC(=O)N1CCC[C@@H](n2nc(-c3ccc(C(=O)Nc4cc(C(F)(F)CCC)ccn4)cc3)c3cncc(Cl)c32)C1` [BCD-BTK-252, (R)-4-(1-(1-acryloylpiperidin-3-yl)-7-chloro-1H-pyrazolo[4,3-c]pyridin-3-yl)-N-(4-(1,1-difluorobutyl)pyridin-2-yl)benzamide], for which the pIC50 was under 6.30 on EGFR, under 6.00 on ITK, under 7.00 against TEC and 4.71 in assay [1].
On to `C=CC(=O)N1CCC[C@@H](n2nc(-c3ccc(C(=O)Nc4ncccc4F)cc3)c3c(N)ncc(C#N)c32)C1` [BCD-BTK-258, 4-{4-amino-7-cyano-1-[(3R)-1-(prop-2-enoyl)piperidin-3-yl]-1H-pyrazolo[4,3-c]pyridin-3-yl}-N-(3-fluoropyridin-2-yl)benzamide], for which the pIC50 was 7.73 on EGFR, 7.48 on ITK, 8.53 against TEC and 4.82 in assay [1].
Regarding `C=CC(=O)N1CCC[C@@H](n2nc(-c3cnc(C(=O)Nc4cc(C(F)(F)CCC)ccn4)nc3)c3cncc(Cl)c32)C1` [BCD-BTK-292, (R)-5-(1-(1-acryloylpiperidin-3-yl)-7-chloro-1H-pyrazolo[4,3-c]pyridin-3-yl)-N-(4-(1,1-difluorobutyl)pyridin-2-yl)pyrimidine-2-carboxamide], the pIC50 against EGFR was under 6.30; against ITK, 7.20; at TEC, 7.11; in assay [1], 4.68.
